Assay results taken from patent publication US20070149446A1, “Tamandarin analogs and fragments thereof and methods of making and using” (The Trustees of the University of Pennsylvania Center for …, priority 2003, published 2007).
Starred links: 1 amine or outer side, 2 acyl side, 3 side chain; linkers in the order of their positions; H or OH if unused. Positions of bridges follow the written chain, without caps; N, C: chain ends. Non-standard residues stand in square brackets, D forms with d. Residues, ends and D or L forms follow the SMILES beside them. Hexanoyl(3S-OH,4R-NH2,5-Me) = CC(C)[C@@H](N[*:1])[C@@H](O)CC(=O)[*:2]; NMe2Nal = CN[C@@H](Cc1ccc2ccccc2c1)C(=O)O; NMeY = CN[C@@H](Cc1ccc(O)cc1)C(=O)O; dNMeL = CN[C@H](CC(C)C)C(=O)O; Hiv = CC(C)[C@H](O)C(=O)O; Lac = C[C@H](O)C(=O)O

Experiments:
SK-BR3 = test: SRB colorimetric cell growth inhibition assay, SK-BR3; conditions: for GI50 / CC50: Homo sapiens, SK-BR-3, 48 h; for CC50: read-out: LC50; for TGI: SK-BR3 cells, total growth inhibition, SRB, 48 hours exposure
Procedure: (§1) This form of assay employs 96 well cell culture microplates of […] diameter (Faircloth, 1988; Mosmann, 1983). Most of the cell lines are obtained from American Type Culture Collection (ATCC) derived from different human cancer types.
(§2) Cells are maintained in RPMI 1640 10% FBS, supplemented with 0.1 g/l penicillin and 0.1 g/l streptomycin sulfate and then incubated at 37° C., 5% CO2 and 98% humidity. For the experiments, cells were harvested from subconfluent cultures using trypsin and resuspended in fresh medium before plating.
(§3) Cells are seeded in 96 well microtiter plates, at 5×10^3 cells per well in aliquots of 195 μl medium, and they are allowed to attach to the plate surface by growing in drug free medium for 18 hours. Afterward, samples are added in aliquots of 5 μl in a ranging from 10 to 10-8 μg/ml, dissolved in DMSO/EtOH/PBS (0.5:0.5:99). After 48 hours exposure, the antitumor effect are measured by the SRB methodology: cells are fixed by adding 50 μl of cold 50% (wt/vol) trichloroacetic acid (TCA) and incubated for 60 minutes at 4° C.
(§4) Plates are washed with deionised water and dried. One hundred μl of SRB solution (0.4% wt/vol in 1% acetic acid) is added to each microtiter well and incubated for 10 minutes at room temperature. Unbound SRB is removed by washing with 1% acetic acid. Plates are air dried and bound stain is solubilized with Tris buffer. Optical densities are read on a automated spectrophotometric plate reader at a single wavelength of 490 nm.
(§5) The values for mean+/−SD of data from triplicate wells are calculated.
(§6) Some parameters for cellular responses can be calculated: GI=growth inhibition, TGI=total growth inhibition (cytostatic effect) and LC=cell killing (cytotoxic effect).

LOVO = test: SRB colorimetric cell growth inhibition assay, LOVO; conditions: for GI50 / CC50: Homo sapiens, LoVo, 48 h; for CC50: read-out: LC50; for TGI: LOVO cells, total growth inhibition, SRB, 48 hours exposure
Procedure: as §1, §2, §3, §4, §5, §6

PANC1 = test: SRB colorimetric cell growth inhibition assay, PANC1; conditions: for GI50 / CC50: Homo sapiens, PANC-1, 48 h; for CC50: read-out: LC50; for TGI: PANC1 cells, total growth inhibition, SRB, 48 hours exposure
Procedure: as §1, §2, §3, §4, §5, §6

LN-caP = test: SRB colorimetric cell growth inhibition assay, LN-caP; conditions: for GI50 / CC50: Homo sapiens, LNCaP, 48 h; for CC50: read-out: LC50; for TGI: LN-caP cells, total growth inhibition, SRB, 48 hours exposure
Procedure: as §1, §2, §3, §4, §5, §6

A549 = test: SRB colorimetric cell growth inhibition assay, A549; conditions: for TGI: A549 cells, total growth inhibition, SRB, 48 hours exposure; for GI50 / CC50: Homo sapiens, A549, 48 h; for CC50: read-out: LC50
Procedure: as §1, §2, §3, §4, §5, §6

K562 = test: SRB colorimetric cell growth inhibition assay, K562; conditions: for GI50 / CC50: Homo sapiens, K562, 48 h; for CC50: read-out: LC50; for TGI: K562 cells, total growth inhibition, SRB, 48 hours exposure
Procedure: as §1, §2, §3, §4, §5, §6

HT29 = test: SRB colorimetric cell growth inhibition assay, HT29; conditions: for TGI: HT29 cells, total growth inhibition, SRB, 48 hours exposure; for GI50 / CC50: Homo sapiens, HT-29, 48 h; for CC50: read-out: LC50
Procedure: as §1, §2, §3, §4, §5, §6

HELA-APL = test: SRB colorimetric cell growth inhibition assay, HELA-APL; conditions: for TGI: HELA-APL cells, total growth inhibition, SRB, 48 hours exposure; for GI50 / CC50: Homo sapiens, 48 h; for CC50: read-out: LC50
Procedure: as §1, §2, §3, §4, §5, §6

IGROV-ET = test: SRB colorimetric cell growth inhibition assay, IGROV-ET; conditions: for GI50 / CC50: Homo sapiens, 48 h; for CC50: read-out: LC50; for TGI: IGROV-ET cells, total growth inhibition, SRB, 48 hours exposure
Procedure: as §1, §2, §3, §4, §5, §6

LOVO-DOX = test: SRB colorimetric cell growth inhibition assay, LOVO-DOX; conditions: for GI50 / CC50: Homo sapiens, 48 h; for CC50: read-out: LC50; for TGI: LOVO-DOX cells, total growth inhibition, SRB, 48 hours exposure
Procedure: as §1, §2, §3, §4, §5, §6

HELA = test: SRB colorimetric cell growth inhibition assay, HELA; conditions: for TGI: HELA cells, total growth inhibition, SRB, 48 hours exposure; for GI50 / CC50: Homo sapiens, HeLa, 48 h; for CC50: read-out: LC50
Procedure: as §1, §2, §3, §4, §5, §6

SK-MEL-28 = test: SRB colorimetric cell growth inhibition assay, SK-MEL-28; conditions: for GI50 / CC50: Homo sapiens, SK-MEL-28, 48 h; for CC50: read-out: LC50; for TGI: SK-MEL-28 cells, total growth inhibition, SRB, 48 hours exposure
Procedure: as §1, §2, §3, §4, §5, §6

IGROV = test: SRB colorimetric cell growth inhibition assay, IGROV; conditions: for GI50 / CC50: Homo sapiens, IGROV, 48 h; for CC50: read-out: LC50; for TGI: IGROV cells, total growth inhibition, SRB, 48 hours exposure
Procedure: as §1, §2, §3, §4, §5, §6

DU145 = test: SRB colorimetric cell growth inhibition assay, DU145; conditions: for TGI: DU145 cells, total growth inhibition, SRB, 48 hours exposure; for GI50 / CC50: Homo sapiens, DU-145, 48 h; for CC50: read-out: LC50
Procedure: as §1, §2, §3, §4, §5, §6

Q: With `COc1ccc(C[C@H]2C(=O)O[C@H](C)[C@H](NC(=O)[C@@H](CC(C)C)N(C)C(=O)[C@@H]3CCCN3C(=O)[C@H](C)O)C(=O)N[C@H](C(C)C)[C@@H](O)CC(=O)O[C@@H](C(C)C)C(=O)N[C@@H](CC(C)C)C(=O)N[C@@H](C)C(=O)N2C)cc1` [Compound 75, [N-Ala^4]-Tamandarin B] (H-[Lac]P[dNMeL]T[Hexanoyl(3S-OH,4R-NH2,5-Me)][Hiv]LA[NMeY](Me); ester 4-C) as the compound, how does the GI50 (SK-BR3) read?
A: 0.789 µM

Q: And the CC50 (SK-BR3)?
A: ≥ 9.84 µM

Q: And the TGI (SK-BR3)?
A: 3.39E−06 Molar

Q: And the GI50 (LOVO)?
A: 3.55 µM

Q: And the CC50 (LOVO)?
A: ≥ 9.84 µM

Q: What about the TGI (LOVO) of the same compound?
A: 9.84E−06 Molar

Q: What about the GI50 (PANC1) of the same compound?
A: 3.75 µM

Q: And the CC50 (PANC1)?
A: ≥ 9.84 µM

Q: What about the TGI (PANC1) of the same compound?
A: 9.84E−06 Molar

Q: And the GI50 (LN-caP)?
A: 0.548 µM

Q: What about the CC50 (LN-caP) of the same compound?
A: ≥ 9.84 µM

Q: What about the TGI (LN-caP) of the same compound?
A: 2.97E−06 Molar

Q: And the TGI (A549)?
A: 9.84E−06 Molar

Q: And the GI50 (A549)?
A: 5.85 µM

Q: And the CC50 (A549)?
A: ≥ 9.84 µM

Q: And the GI50 (K562)?
A: 5.87 µM

Q: What about the CC50 (K562) of the same compound?
A: ≥ 9.84 µM

Q: And the TGI (K562)?
A: 9.46E−06 Molar

Q: And the TGI (HT29)?
A: 9.84E−06 Molar

Q: And the GI50 (HT29)?
A: 4.22 µM

Q: What about the CC50 (HT29) of the same compound?
A: ≥ 9.84 µM

Q: And the TGI (HELA-APL)?
A: 9.84E−06 Molar

Q: And the GI50 (HELA-APL)?
A: ≥ 9.84 µM

Q: And the CC50 (HELA-APL)?
A: ≥ 9.84 µM

Q: And the GI50 (IGROV-ET)?
A: 6.86 µM

Q: What about the CC50 (IGROV-ET) of the same compound?
A: ≥ 9.84 µM

Q: What about the TGI (IGROV-ET) of the same compound?
A: 9.84E−06 Molar

Q: What about the GI50 (LOVO-DOX) of the same compound?
A: ≥ 9.84 µM

Q: And the CC50 (LOVO-DOX)?
A: ≥ 9.84 µM

Q: And the TGI (LOVO-DOX)?
A: 9.84E−06 Molar

Q: And the TGI (HELA)?
A: 3.60E−06 Molar

Q: And the GI50 (HELA)?
A: 1.18 µM

Q: What about the CC50 (HELA) of the same compound?
A: ≥ 9.84 µM

Q: What about the GI50 (SK-MEL-28) of the same compound?
A: 1.5 µM

Q: And the CC50 (SK-MEL-28)?
A: 8 µM

Q: And the TGI (SK-MEL-28)?
A: 3.46E−06 Molar

Q: And the GI50 (IGROV)?
A: 1.99 µM

Q: And the CC50 (IGROV)?
A: ≥ 9.84 µM

Q: What about the TGI (IGROV) of the same compound?
A: 5.29E−06 Molar

Q: And the TGI (DU145)?
A: 4.95E−06 Molar

Q: And the GI50 (DU145)?
A: 1.81 µM

Q: And the CC50 (DU145)?
A: ≥ 9.84 µM

Q: How did the GI50 (SK-BR3) turn out when `CC(C)C[C@@H]1NC(=O)[C@H](C(C)C)OC(=O)C[C@H](O)[C@@H](C(C)C)NC(=O)[C@@H](NC(=O)[C@@H](CC(C)C)N(C)C(=O)[C@@H]2CCCN2C(=O)[C@H](C)O)[C@@H](C)OC(=O)[C@H](Cc2ccc3ccccc3c2)N(C)C(=O)[C@@H]2CCCN2C1=O` [Compound 93, [2-Naphthylala^5]-Tamandarin B] (H-[Lac]P[dNMeL]T[Hexanoyl(3S-OH,4R-NH2,5-Me)][Hiv]LP[NMe2Nal]; ester 4-C) was run?
A: 0.00183 µM

Q: And the CC50 (SK-BR3)?
A: 4.65 µM

Q: And the TGI (SK-BR3)?
A: 1.89E−08 Molar

Q: What about the GI50 (LOVO) of the same compound?
A: 0.00684 µM

Q: What about the CC50 (LOVO) of the same compound?
A: 2.49 µM

Q: And the TGI (LOVO)?
A: 4.27E−08 Molar

Q: And the GI50 (PANC1)?
A: 0.00624 µM

Q: What about the CC50 (PANC1) of the same compound?
A: 9.41 µM

Q: And the TGI (PANC1)?
A: 9.00E−08 Molar

Q: And the GI50 (LN-caP)?
A: 0.00198 µM

Q: What about the CC50 (LN-caP) of the same compound?
A: 0.0097 µM

Q: And the TGI (LN-caP)?
A: 4.33E−09 Molar

Q: And the TGI (A549)?
A: 4.86E−08 Molar

Q: What about the GI50 (A549) of the same compound?
A: 0.00696 µM

Q: And the CC50 (A549)?
A: 0.595 µM

Q: What about the GI50 (K562) of the same compound?
A: 0.02 µM

Q: And the CC50 (K562)?
A: 0.198 µM

Q: And the TGI (K562)?
A: 4.73E−08 Molar

Q: What about the TGI (HT29) of the same compound?
A: 6.98E−08 Molar

Q: What about the GI50 (HT29) of the same compound?
A: 0.0046 µM

Q: And the CC50 (HT29)?
A: 5.58 µM

Q: And the TGI (HELA-APL)?
A: 1.68E−07 Molar

Q: And the GI50 (HELA-APL)?
A: 0.0364 µM

Q: And the CC50 (HELA-APL)?
A: 2.28 µM

Q: What about the GI50 (IGROV-ET) of the same compound?
A: 0.159 µM

Q: What about the CC50 (IGROV-ET) of the same compound?
A: 2.81 µM

Q: What about the TGI (IGROV-ET) of the same compound?
A: 6.54E−07 Molar

Q: What about the GI50 (LOVO-DOX) of the same compound?
A: 0.429 µM

Q: And the CC50 (LOVO-DOX)?
A: 9.41 µM

Q: And the TGI (LOVO-DOX)?
A: 2.33E−06 Molar

Q: What about the TGI (HELA) of the same compound?
A: 9.79E−09 Molar

Q: What about the GI50 (HELA) of the same compound?
A: 0.00281 µM

Q: What about the CC50 (HELA) of the same compound?
A: 0.0549 µM

Q: What about the GI50 (SK-MEL-28) of the same compound?
A: 0.00414 µM

Q: What about the CC50 (SK-MEL-28) of the same compound?
A: 0.0879 µM

Q: What about the TGI (SK-MEL-28) of the same compound?
A: 1.52E−08 Molar

Q: What about the GI50 (IGROV) of the same compound?
A: 0.00209 µM

Q: What about the CC50 (IGROV) of the same compound?
A: 0.666 µM

Q: What about the TGI (IGROV) of the same compound?
A: 1.28E−08 Molar

Q: And the TGI (DU145)?
A: 4.39E−09 Molar

Q: What about the GI50 (DU145) of the same compound?
A: 0.00217 µM

Q: What about the CC50 (DU145) of the same compound?
A: 0.00883 µM
